The text below walks through data of patent US8372854B2, “Pyrrolo[2,3-D]pyrimidine compounds” (Pfizer Inc., priority 2009, dated 2013).

Type in all cases: biochemical
The target of one assay is T1, JAK3 (Homo sapiens, UniProt P52333).
T1 construct: purchased Invitrogen Corporation, Madison, Wis; PV3855
T1 sequence (P52333 1-1124): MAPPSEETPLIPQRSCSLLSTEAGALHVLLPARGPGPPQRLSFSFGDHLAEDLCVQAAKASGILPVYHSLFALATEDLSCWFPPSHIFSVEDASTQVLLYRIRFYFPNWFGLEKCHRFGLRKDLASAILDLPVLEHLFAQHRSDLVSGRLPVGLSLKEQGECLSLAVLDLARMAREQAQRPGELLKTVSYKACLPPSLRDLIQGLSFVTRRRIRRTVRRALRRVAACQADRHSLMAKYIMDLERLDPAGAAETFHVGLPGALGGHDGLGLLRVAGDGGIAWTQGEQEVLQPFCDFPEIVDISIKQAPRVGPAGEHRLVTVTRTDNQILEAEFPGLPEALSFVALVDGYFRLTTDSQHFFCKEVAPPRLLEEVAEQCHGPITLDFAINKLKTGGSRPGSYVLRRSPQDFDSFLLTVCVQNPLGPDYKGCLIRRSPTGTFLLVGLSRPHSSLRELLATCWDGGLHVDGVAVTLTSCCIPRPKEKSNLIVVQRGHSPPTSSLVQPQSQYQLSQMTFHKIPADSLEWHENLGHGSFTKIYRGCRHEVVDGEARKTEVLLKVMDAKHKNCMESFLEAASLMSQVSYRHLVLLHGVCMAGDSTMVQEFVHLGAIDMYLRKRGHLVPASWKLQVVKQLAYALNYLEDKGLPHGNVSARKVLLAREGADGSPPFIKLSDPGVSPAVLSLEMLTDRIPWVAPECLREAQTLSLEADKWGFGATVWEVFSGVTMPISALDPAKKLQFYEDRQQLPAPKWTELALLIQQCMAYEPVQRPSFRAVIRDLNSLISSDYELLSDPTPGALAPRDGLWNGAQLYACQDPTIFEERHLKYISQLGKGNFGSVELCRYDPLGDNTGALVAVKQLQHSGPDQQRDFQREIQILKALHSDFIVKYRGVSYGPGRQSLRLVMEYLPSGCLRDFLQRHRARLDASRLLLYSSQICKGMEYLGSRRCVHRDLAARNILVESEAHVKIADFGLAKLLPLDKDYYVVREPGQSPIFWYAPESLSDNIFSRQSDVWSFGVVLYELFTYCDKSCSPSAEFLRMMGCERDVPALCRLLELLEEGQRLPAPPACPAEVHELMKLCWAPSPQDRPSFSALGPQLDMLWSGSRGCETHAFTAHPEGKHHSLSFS
The experiment in a line: JAK enzymatic assay (peptide mobility shift), JAK3. As to conditions: recombinant JAK3 1 nM, ATP 4 μM, 1 μM JAKtide peptide, 90 minutes. From the text: Recombinant JAK1 (Catalog Number PV4775), JAK2 (Catalog Number PV4210) and JAK3 (Catalog Number PV3855) were purchased from (Invitrogen Corporation, Madison, Wis.). Tyk2 (His-Tyk2 (888-1182, C936S, C1142S)) used in this study was expressed and purified at Pfizer Laboratories. Adenosine 5′-triphosphate (ATP) was obtained from (Sigma Chemical Company, St. Louis, Mo.). […] Coating Reagent 3 was purchased from (Caliper Life Sciences, Hopkinton, Mass.).
(§1) A peptide mobility shift assay was used to quantify the phosphorylation of the JAKtide (JAK2 and JAK3) or the IRS-1 peptide ([…] and Tyk2). Reactions were carried out in a 384-well plate (Matrical MP-101) in a 10 μL total volume. Reaction mixtures contained 20 mM HEPES, pH 7.4, 10 mM magnesium chloride, 0.01% bovine serum albumin (BSA), 0.0005% Tween-20, ATP (4 μM for JAK2 and JAK3, 40 μM for JAK1 and 7 μM for Tyk2)), 2% DMSO and 1 μM peptide substrate (JAKtide for JAK2 and JAK3 and IRS-1 peptide for JAK1 and Tyk2). Compounds were diluted serially in 100% dimethyl sulfoxide and tested in an 11 point dose response in duplicate or quadruplicate (200 nl of compound/DMSO was added per 10 μL reaction). The reactions were initiated by the addition of enzyme to the final concentration of 2 nM JAK2, 1 nM JAK3, 12 nM Tyk2 or 20 nM JAK1. The assay was run for 240 minutes for JAK1, 150 minutes for JAK2, 90 minutes for JAK3 and 70 minutes for Tyk2. The assays were stopped at the specified times with 20 uL of 140 mM HEPES, 22.5 mM EDTA and 0.15% Coating Reagent 3. The plates were placed on a LabChip 3000 (LC3000) instrument from (Caliper Life Sciences) to measure the formation of phosphorylated peptide. Data was analyzed using Hits Well Analyzer Software from (Caliper Life Sciences) to obtain the amount of product formed.
(§2) Data was then imported into an internal application where each data point is expressed as % inhibition based on uninhibited and no enzyme controls. Dose-response data is then fit using a 4 parameter logistic equation (Equation 1) to determine an IC50.
(§3) Where max is the fitted uninhibited value, min is the fitted complete inhibition value, and s is the slope factor.

A further assay deals with T2, JAK2 (Homo sapiens, UniProt O60674).
T2 construct: purchased Invitrogen Corporation, Madison, Wis; PV4210
T2 sequence (O60674 whole entry): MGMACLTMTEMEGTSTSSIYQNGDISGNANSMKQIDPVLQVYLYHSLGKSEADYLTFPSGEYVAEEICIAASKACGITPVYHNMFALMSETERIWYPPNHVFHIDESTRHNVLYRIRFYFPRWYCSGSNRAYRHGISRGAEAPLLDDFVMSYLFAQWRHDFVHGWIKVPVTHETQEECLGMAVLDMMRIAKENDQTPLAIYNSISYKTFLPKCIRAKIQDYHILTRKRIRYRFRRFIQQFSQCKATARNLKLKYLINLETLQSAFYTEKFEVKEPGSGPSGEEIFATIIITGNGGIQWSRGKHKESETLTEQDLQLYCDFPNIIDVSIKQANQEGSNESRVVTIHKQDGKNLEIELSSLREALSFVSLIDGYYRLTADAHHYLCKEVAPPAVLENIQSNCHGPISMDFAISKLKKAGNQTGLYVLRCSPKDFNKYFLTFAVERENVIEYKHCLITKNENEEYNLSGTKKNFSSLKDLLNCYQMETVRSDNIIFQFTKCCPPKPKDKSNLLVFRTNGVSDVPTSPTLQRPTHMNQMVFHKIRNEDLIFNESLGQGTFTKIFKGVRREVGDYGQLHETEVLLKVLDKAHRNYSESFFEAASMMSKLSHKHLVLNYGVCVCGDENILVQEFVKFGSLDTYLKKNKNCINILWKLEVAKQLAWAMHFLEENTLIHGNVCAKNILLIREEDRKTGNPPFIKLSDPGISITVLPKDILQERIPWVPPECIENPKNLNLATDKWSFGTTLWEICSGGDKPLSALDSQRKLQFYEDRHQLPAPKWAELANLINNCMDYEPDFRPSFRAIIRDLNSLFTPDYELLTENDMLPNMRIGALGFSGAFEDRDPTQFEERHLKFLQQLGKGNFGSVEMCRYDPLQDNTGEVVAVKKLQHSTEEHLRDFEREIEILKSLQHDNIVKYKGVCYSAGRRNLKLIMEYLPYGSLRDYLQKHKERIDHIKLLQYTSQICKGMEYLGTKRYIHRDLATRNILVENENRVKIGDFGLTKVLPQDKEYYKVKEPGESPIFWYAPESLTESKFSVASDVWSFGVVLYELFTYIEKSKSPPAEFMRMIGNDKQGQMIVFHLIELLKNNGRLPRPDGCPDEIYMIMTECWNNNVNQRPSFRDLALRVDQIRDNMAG
The experiment in a line: JAK enzymatic assay (peptide mobility shift), JAK2. As to conditions: recombinant JAK2 2 nM, ATP 4 μM, 1 μM JAKtide peptide, 150 minutes.
Excerpt: (§4) Recombinant JAK1 (Catalog Number PV4775), JAK2 (Catalog Number PV4210) and JAK3 (Catalog Number PV3855) were purchased from (Invitrogen Corporation, Madison, Wis.). Tyk2 (His-Tyk2 (888-1182, C936S, C1142S)) used in this study was expressed and purified at Pfizer Laboratories. Adenosine 5′-triphosphate (ATP) was obtained from (Sigma Chemical Company, St. Louis, Mo.). The JAKtide peptide (peptide sequence, FITC-[…]) used for the JAK2 and JAK3 assays and the IRS-1 peptide (peptide sequence, 5-FAM-[…]) used for the JAK1 and Tyk2 assays were purchased from (American Peptide Company, Sunnyvale, Calif.). Coating Reagent 3 was purchased from (Caliper Life Sciences, Hopkinton, Mass.).
as §1, §2, §3

In the next assay the target is T3, JAK1 (Homo sapiens, UniProt P23458).
T3 construct: purchased Invitrogen Corporation, Madison, Wis; PV4775
T3 sequence (P23458 whole entry): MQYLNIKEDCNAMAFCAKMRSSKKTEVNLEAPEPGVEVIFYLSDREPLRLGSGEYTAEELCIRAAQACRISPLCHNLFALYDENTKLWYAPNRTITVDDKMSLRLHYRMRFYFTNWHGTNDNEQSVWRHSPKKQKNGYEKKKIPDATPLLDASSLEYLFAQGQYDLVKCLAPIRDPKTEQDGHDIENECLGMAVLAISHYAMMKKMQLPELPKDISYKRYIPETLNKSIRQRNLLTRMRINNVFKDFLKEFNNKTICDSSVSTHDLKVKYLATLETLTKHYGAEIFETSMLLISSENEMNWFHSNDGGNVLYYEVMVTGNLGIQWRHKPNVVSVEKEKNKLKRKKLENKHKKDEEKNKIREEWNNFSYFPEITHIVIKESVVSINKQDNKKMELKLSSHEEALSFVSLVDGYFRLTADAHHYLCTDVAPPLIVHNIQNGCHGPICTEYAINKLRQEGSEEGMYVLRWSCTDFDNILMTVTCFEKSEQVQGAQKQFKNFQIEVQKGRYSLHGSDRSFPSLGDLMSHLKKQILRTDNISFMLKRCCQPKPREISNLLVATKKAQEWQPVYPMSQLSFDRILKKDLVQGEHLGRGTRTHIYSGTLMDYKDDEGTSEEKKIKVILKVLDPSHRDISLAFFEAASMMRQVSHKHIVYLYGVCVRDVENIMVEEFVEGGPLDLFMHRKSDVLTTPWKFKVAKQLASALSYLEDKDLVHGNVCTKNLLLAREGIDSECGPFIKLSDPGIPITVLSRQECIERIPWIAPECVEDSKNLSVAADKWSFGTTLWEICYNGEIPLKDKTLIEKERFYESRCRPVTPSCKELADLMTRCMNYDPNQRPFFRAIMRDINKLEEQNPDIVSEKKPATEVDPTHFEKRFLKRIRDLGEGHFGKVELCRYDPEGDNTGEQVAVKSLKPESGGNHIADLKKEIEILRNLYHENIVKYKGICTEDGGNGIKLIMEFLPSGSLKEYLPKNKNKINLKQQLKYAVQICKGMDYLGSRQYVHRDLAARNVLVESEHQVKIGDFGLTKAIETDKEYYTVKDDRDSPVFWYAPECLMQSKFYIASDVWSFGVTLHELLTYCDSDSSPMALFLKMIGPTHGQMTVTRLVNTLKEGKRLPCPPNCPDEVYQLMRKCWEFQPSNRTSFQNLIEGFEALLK
Put plainly: JAK enzymatic assay (peptide mobility shift), JAK1. Particulars: recombinant JAK1 20 nM, ATP 40 μM, 1 μM IRS-1 peptide, 240 minutes.
Excerpt: as §4, §1, §2, §3

The term IC50 denotes the concentration that inhibits the measured activity by half. For `Cc1cc2cc(CNS(=O)(=O)C[C@H]3CC[C@H](N(C)c4ncnc5[nH]ccc45)CC3)ccc2[nH]1` [Example 34, N-[(2-methyl-1H-indol-5-yl)methyl]-1-{trans-4-[methyl(7H-pyrrolo[2,3-d]-pyrimidin-4-yl)amino]-cyclohexyl}-methanesulfonamide], the IC50 on JAK3 was found to be 224 nM; at JAK2, 24.7 nM; on JAK1 it was 6.76 nM.
In the case of `CN(c1ncnc2[nH]ccc12)[C@H]1CC[C@H](CS(=O)(=O)NCCc2ccccc2)CC1` [Example 15, 1-{trans-4-[methyl(7H-pyrrolo-[2,3-d]pyrimidin-4-yl)amino]-cyclohexyl}-N-(2-phenylethyl)-methanesulfonamide], the values for the IC50 at JAK3, at JAK2 and on JAK1 were 87.8 nM, 12 nM and 2.87 nM, respectively.
In the same order, the values of `CN(c1ncnc2[nH]ccc12)[C@H]1CC[C@H](CS(=O)(=O)NCCc2ccc(S(N)(=O)=O)cc2)CC1` [Example 2, 4-(2-{[({trans-4-[methyl(7H-pyrrolo[2,3-d]pyrimidin-4-yl)amino]cyclohexyl}methyl)sulfonyl]amino}ethyl)benzene-sulfonamide] are 166 nM, 14.9 nM and 1.82 nM.
As to `CN(c1ncnc2[nH]ccc12)[C@H]1CC[C@H](CS(=O)(=O)NCc2cccnc2)CC1` [Example 19, 1-{trans-4-[methyl(7H-pyrrolo[2,3-d]pyrimidin-4-yl)amino]cyclohexyl}-N-(pyridin-3-ylmethyl)-methanesulfonamide], the results for the IC50 on JAK3, at JAK2 and on JAK1 were 376 nM, 57.9 nM and 9.3 nM, respectively.
For the molecule `CN(c1ncnc2[nH]ccc12)[C@H]1CC[C@H](CS(=O)(=O)NC2CC2)CC1` [Example 1, N-cyclopropyl-1-{trans-4-[methyl(7H-pyrrolo[2,3-d]pyrimidin-4-yl)amino]cyclohexyl}methanesulfonamide], the figures for the IC50 at JAK3, on JAK2 and at JAK1 were 224 nM, 45.4 nM and 10 nM, respectively.
Take `CN(c1ncnc2[nH]ccc12)[C@H]1CC[C@H](CS(=O)(=O)NCC(F)c2ccc(F)cc2)CC1` (stereo partly drawn) [Example 11, N-[2-fluoro-2-(4-fluoro-phenyl)ethyl]-1-{trans-4-[methyl(7H-pyrrolo[2,3-d]-pyrimidin-4-yl)amino]-cyclohexyl}-methanesulfonamide]: the values for the IC50 at JAK3, on JAK2 and on JAK1 were 424 nM, 61.9 nM and 13.5 nM, respectively.
Taken in the same sequence, the figures for `COc1cccc(CCNS(=O)(=O)C[C@H]2CC[C@H](N(C)c3ncnc4[nH]ccc34)CC2)c1` [Example 10, N-[2-(3-methoxyphenyl)-ethyl]-1-{trans-4-[methyl-(7H-pyrrolo[2,3-d]pyrimidin-4-yl)amino]cyclohexyl}-methanesulfonamide] were 301 nM, 34.1 nM and 11 nM.
In the case of `CN(c1ncnc2[nH]ccc12)[C@H]1CC[C@H](CS(=O)(=O)NCC(C)(F)c2ccc(F)cc2)CC1` (stereo partly drawn) [Example 8, N-[2-fluoro-2-(4-fluoro-phenyl)propyl]-1-{trans-4-[methyl(7H-pyrrolo[2,3-d]-pyrimidin-4-yl)amino]-cyclohexyl}-methanesulfonamide], the IC50 was 403 nM on JAK3, 32.3 nM at JAK2 and 6.05 nM on JAK1.
For `CN(c1ncnc2[nH]ccc12)[C@H]1CC[C@H](CS(=O)(=O)Nc2ccc(Cl)nc2)CC1` [Example 25, N-(6-chloropyridin-3-yl)-1-{trans-4-[methyl(7H-pyrrolo[2,3-d]pyrimidin-4-yl)-amino]cyclohexyl}-methanesulfonamide], the 50% inhibitory concentration (IC50) worked out at 228 nM on JAK3, 57.4 nM on JAK2 and 18.6 nM at JAK1.
On to `CN(c1ncnc2[nH]ccc12)[C@H]1CC[C@H](CS(=O)(=O)NCCc2ccc(O)cc2)CC1` [Example 3, N-[2-(4-hydroxyphenyl)-ethyl]-1-{trans-4-[methyl-(7H-pyrrolo[2,3-d]pyrimidin-4-yl)amino]cyclohexyl}-methanesulfonamide], for which the half-inhibitory concentration (IC50) on JAK3 turned out to be 257 nM; on JAK2 it was 28.6 nM; on JAK1 it was 2.25 nM.
`CN(c1ncnc2[nH]ccc12)[C@H]1CC[C@H](CS(=O)(=O)NCCc2ccc(C(F)(F)F)cc2F)CC1` [Example 13, N-{2-[2-fluoro-4-(trifluoro-methyl)phenyl]ethyl}-1-{trans-4-[methyl(7H-pyrrolo[2,3-d]pyrimidin-4-yl)amino]cyclohexyl}-methanesulfonamide]: the IC50 on JAK2 came to 55.3 nM; at JAK1 it was 17.4 nM.
Take `Cc1nn(C)cc1CNS(=O)(=O)C[C@H]1CC[C@H](N(C)c2ncnc3[nH]ccc23)CC1` [Example 52, N-[(1,3-dimethyl-1H-pyrazol-4-yl)methyl]-1-{trans-4-[methyl(7H-pyrrolo[2,3-d]pyrimidin-4-yl)amino]cyclohexyl}-methanesulfonamide]: the IC50 on JAK3 was 762 nM; on JAK2, 107 nM; at JAK1, 24 nM.
Regarding `COc1ccc(CNS(=O)(=O)C[C@H]2CC[C@@H](N(C)c3ncnc4[nH]ccc34)CC2)cc1` [Example 56, N-(4-methoxybenzyl)-1-{cis-4-[methyl(7H-pyrrolo[2,3-d]pyrimidin-4-yl)amino]cyclohexyl}-methanesulfonamide], the results for the IC50 on JAK3, on JAK2 and on JAK1 were 114 nM, 36.6 nM and 10.7 nM, respectively.
As for `Cc1cccc(CCNS(=O)(=O)C[C@H]2CC[C@H](N(C)c3ncnc4[nH]ccc34)CC2)n1` [Example 50, N-[2-(6-methylpyridin-2-yl)ethyl]-1-{trans-4-[methyl(7H-pyrrolo[2,3-d]-pyrimidin-4-yl)amino]-cyclohexyl}-methanesulfonamide], the IC50 at JAK3 was 633 nM; on JAK2, 80.6 nM; at JAK1 it was 21.6 nM.
